Here are results for 72 compounds from ChEMBL document CHEMBL3507680, “University of Dundee, Gates Library screen for HepG2 cell viability”.

The data set can be described thus: Human HepG2 cell viability assay in 384 well format. The data set is classed as toxicity, cell-based. Set-up: dose 125 nL, time 70.5 hour; concentration not given beside the values. To be noted: HepG2 cells, read-out: Inhibition.
For the compound `Cc1cccc(CN2CCc3nnc(CN4CCCC4=O)n3CC2)n1`, the cytotoxicity at 70.5 h is -16.9%.
The same measure for `Cc1ncsc1CCN(C)Cc1ccc(CO)o1`: -5.5%.
With `O=C(CCC1CCCCC1)NS(=O)(=O)CC1CC1`, the cytotoxicity at 70.5 h is 14.7%.
As for `CNc1cc(-c2ccc(COCCN)cc2)c2cc[nH]c2n1`, the cytotoxicity at 70.5 h is -13.6%.
Turning to `Cc1nc(CNCC2CN(C3CC3)CCO2)cs1` (configuration not stated), the cytotoxicity at 70.5 h was 23.8%.
Turning to `CCCN(CCc1ccccn1)C(=O)Cn1cnnn1`, the cytotoxicity at 70.5 h is -23.7%.
For the compound `COC(=O)NCC(=O)N1CCc2cc(Cl)cc(Cl)c2C1`, the cytotoxicity at 70.5 h was -1.77%.
Regarding `OC1CCN(Cc2ccc(CNc3ccc(Cl)cn3)cc2)CC1`, the cytotoxicity at 70.5 h was -0.577%.
Turning to `CS(=O)(=O)N1CCCC(Cc2ccnc3ccncc23)CC1` (configuration not stated), the cytotoxicity at 70.5 h was -0.73%.
Regarding `Cc1ccnc(CC(C)N(C)c2cc(CN)nc(C)n2)c1` (configuration not stated), the cytotoxicity at 70.5 h was -5.59%.
For `Cc1n[nH]c(C)c1C(N)C(=O)NCCc1csc(C(C)C)n1` (configuration not stated), the cytotoxicity at 70.5 h was -11.3%.
Regarding `CCC(CC(=O)Nc1ccc2c(c1)CC(=O)N2)c1ccccc1` (configuration not stated), the cytotoxicity at 70.5 h is -6.03%.
The value for `COCC(O)CN(C)C(=O)NCc1ccc(S(C)(=O)=O)cc1` (configuration not stated) was -106%.
Regarding `Cc1nc(CN(C)C(=O)c2ccc(Cn3cnnn3)cc2)cs1`, the cytotoxicity at 70.5 h came to 21.4%.
For `C[C@@H]1CN(C(=O)c2cc(Cn3ccc4ccccc43)[nH]n2)C[C@H](C)O1`, the cytotoxicity at 70.5 h was 26.1%.
Regarding `Cc1c(C(=O)NCC2CCN(C)C2)n(C)c2c(C)cccc12` (configuration not stated), the cytotoxicity at 70.5 h is -7.34%.
The same measure for `O=C(c1ccc(-n2ccnc2)nc1)N1CCN2CCCCC2C1` (configuration not stated): -10.4%; for `CCc1nnsc1C(=O)NCCC1CN(C(C)C)CCO1` (configuration not stated): -7.17%; for `CCC(Nc1ccc(Oc2cccc(C#N)c2)cc1)C(N)=O` (configuration not stated): -12.3%.
The value for `CCc1ccc(CN(C)Cc2nc(-c3cnccn3)no2)nc1` was -13.4%; that for `CCc1ncc(CN2CCCC3(CCC(=O)N(CCC(C)C)C3)C2)cn1` (configuration not stated) was 1.46%.
For the compound `O=C(c1cccs1)N1CCc2c(nc(N3CCCC3)[nH]c2=O)C1`, the cytotoxicity at 70.5 h is -0.974%.
`CN1CCC(N[C@@H]2CO[C@H](CNC(=O)c3cccs3)[C@H]2O)CC1`: the cytotoxicity at 70.5 h was -6.9%.
The same measure for `Cc1ncc2c(n1)CN(Cc1cccc3c1OCCO3)CC2`: -1.1%; for `COc1ccc(CN2C[C@H]3CN(C(=O)c4ccno4)CCN3C2=O)cc1`: -7.88%; for `CC(=O)N1CCN([C@@H]2CN(C(=O)c3ccccc3C)C[C@H]2O)CC1`: -3.99%.
In the case of `CC(Nc1ncnc2c1NC(=O)CN2)c1ccc2c(c1)OCO2` (configuration not stated), the cytotoxicity at 70.5 h was -18.5%.
`CC(=O)NC1CCN(c2cc(C3CCNCC3)ccn2)CC1`: the cytotoxicity at 70.5 h is -2.92%.
With `COCCN1CCN(CC(O)c2ccc(C(F)(F)F)cc2)CC1` (configuration not stated), the cytotoxicity at 70.5 h is -7.3%.
With `CCc1nnsc1C(=O)N1CCCN(Cc2ccc(F)cc2)CC1`, the cytotoxicity at 70.5 h was -9.04%.
`c1ccc(CN2CCC3(CC2)CCN(Cc2cccnc2)C3)nc1`: the cytotoxicity at 70.5 h was -9.45%.
Turning to `O=C(Cc1ccc2c(c1)CCO2)N1CCN(c2cnccn2)CC1`, the cytotoxicity at 70.5 h was 23.2%.
Regarding `O=C(Nc1cccc2c1CCCC2)c1cccc(CN2CC[C@H](O)C2)c1`, the cytotoxicity at 70.5 h was -4.36%.
Take `Cn1ccnc1CN1CCCN(C(=O)C2(C#N)CCCCC2)CC1`: the cytotoxicity at 70.5 h amounted to 1.4%.
As to `CCCc1n[nH]c(C2CN(C(=O)Cn3ccccc3=O)CCO2)n1` (configuration not stated), the cytotoxicity at 70.5 h is -4.93%.
Consider `Cc1ccc(C2CN(C(=O)c3c(C)cc(C)[nH]c3=O)CCO2)c(C)c1` (configuration not stated), for which the cytotoxicity at 70.5 h was 9.82%.
Turning to `Cc1n[nH]c(C2CN(CC(=O)NCc3sccc3C)CCO2)n1` (configuration not stated), the cytotoxicity at 70.5 h was -93.4%.
The same measure for `Cc1cc(C)c(CNC(=O)N2CCCC2c2ccc(F)cc2)c(=O)[nH]1` (configuration not stated): -6.72%.
For the compound `O=C(O)c1c(-c2cccnc2)ncc2c1CCN(Cc1cccnc1)C2`, the cytotoxicity at 70.5 h is -5.73%.
`CCn1c(C)cc(C(=O)NCc2cccc(S(=O)(=O)NC)c2)c1C`: the cytotoxicity at 70.5 h was -4.15%.
Regarding `Cc1ncnc2c1CCN(C(=O)N(C)C)CC2`, the cytotoxicity at 70.5 h is -0.115%.
In the case of `Cc1ccc(-c2ccc(Cl)nn2)cc1S(N)(=O)=O`, the cytotoxicity at 70.5 h is -7.63%.
As for `Cc1ccsc1[C@@H]1CCN(C(=O)CCOc2ccccc2)C[C@H]1O`, the cytotoxicity at 70.5 h is -8.93%.
Regarding `CN1[C@H]2CC[C@@H]1CN(c1cc(Sc3cccs3)nc(N)n1)CC2`, the cytotoxicity at 70.5 h was 22.8%.
For the compound `c1cc2c(cc1C1(CNC3=NCCN3)CCCC1)OCCO2`, the cytotoxicity at 70.5 h is -3.87%.
The same measure for `CC(=O)N1CCC(c2cccc(-c3cccc(C(=O)O)c3)n2)CC1`: -0.201%; for `CCC1CN(CC(=O)NCCOC)CCO1` (configuration not stated): -4.46%; for `COCCCC(=O)NC1(c2cccc(Br)c2)CC1`: 8.13%.
Regarding `CCCSCC(=O)N1CCCC(c2nccn2Cc2ccncc2)C1` (configuration not stated), the cytotoxicity at 70.5 h is 25.6%.
As for `O=C(Cc1ccc(F)cc1)N1CCN(CC(O)C2CC2)CC1` (configuration not stated), the cytotoxicity at 70.5 h is -1.1%.
Consider `CCNC(=O)NCC(CC)(OC)c1ccccc1` (configuration not stated), for which the cytotoxicity at 70.5 h is -5.55%.
The value for `CCc1ncc(C(=O)NCCn2c(C)cc(C)nc2=O)cn1` was -1.56%; that for `O[C@@H]1C[C@@H](c2nc(-c3ccccc3)no2)N(C2CCOCC2)C1` was -3.47%.
Take `O=C1CCN(C(=O)C2(c3ccc(Br)cc3)CC2)CCN1`: the cytotoxicity at 70.5 h is 1.42%.
Consider `CC(=O)Nc1ccc(CNC(=O)CNCc2nnc(C)o2)cc1`, for which the cytotoxicity at 70.5 h worked out at 2.3%.
The same measure for `CC1CCCCN1C(=O)Cn1cc(I)cn1` (configuration not stated): -1.82%.
`Cc1ncc(CC(=O)N2CCC(N3C[C@@H](C)O[C@@H](C)C3)CC2)c(=O)[nH]1`: the cytotoxicity at 70.5 h came to 9.33%.
Regarding `CN(C)CCN1CCOCC2(C1)CN(Cc1ccsc1)CCO2` (configuration not stated), the cytotoxicity at 70.5 h was -9.68%.
Regarding `CSCC(CCO)Nc1cccc(C(F)(F)F)n1` (configuration not stated), the cytotoxicity at 70.5 h was -1.51%.
Regarding `O=C(c1ccc(Cl)cc1)N1CCc2nc(C(=O)N3CCCC3)sc2CC1`, the cytotoxicity at 70.5 h stood at 7.75%.
The same measure for `COCC1CN(S(=O)(=O)c2ccccc2)Cc2ncnn2C1` (configuration not stated): -6.59%.
For the compound `O=C(c1cnc(C2CC2)s1)N1CCCCC1Cn1cccn1` (configuration not stated), the cytotoxicity at 70.5 h came out at 0.664%.
The same measure for `O=C(CCc1nccs1)N1CCN(c2ccc(Cl)cn2)CC1`: -5.57%; for `O=C(Nc1ccccc1N1CCOC1=O)N1CCSCC1`: 14.3%; for `Cc1nnc(-c2cccc(N3CCC(NC4CCSC4)CC3)c2)s1` (configuration not stated): 4.71%.
For the compound `COCCOc1ccc(NC(=O)C2CC(=O)N(C)C2)cn1` (configuration not stated), the cytotoxicity at 70.5 h is -4.68%.
Turning to `CC(C)N1CCC(c2cnc(-c3cn[nH]c3)cn2)CC1`, the cytotoxicity at 70.5 h came to 2.32%.
Turning to `Cc1cc2nc(C(C)C)cc(N(C)CC3CCCN(CCO)C3)n2n1` (configuration not stated), the cytotoxicity at 70.5 h was -2.47%.
The same measure for `Cn1cc(N2CC3(CCN(Cc4cccs4)CC3)OCC2=O)cn1`: -4.87%.
As to `N#Cc1cccc(CS(=O)(=O)NCC(O)Cc2ccccc2)c1` (configuration not stated), the cytotoxicity at 70.5 h was -0.967%.
On to `O=C(O)c1ccccc1-c1ccc(CN2CCOCC2)cn1`, for which the cytotoxicity at 70.5 h is -7.9%.
Consider `CCc1ccc(-n2c(=O)[nH]c3nc(N4CCSCC4)ncc3c2=O)cc1`, for which the cytotoxicity at 70.5 h is -8.65%.
